Earlier results on 3 compounds are cited in patent US8197851B2, “Carotenoid composition and method for preparation thereof” (priority 2004, dated 2012).

Data set [1] deals with cell surface molecules that initiate immune response. Particulars: human trials.
The test system of data set [2] is natural killer cell (NK) activity. Particulars: elderly men.
Data set [3] has as its system mouse epidermis (in vivo). The conditions noted are these: topical.
In data set [4] the test system is human epidermis (ex vivo). Particulars: topical.
Data set [5] deals with Gap Junctional Communication (GJC). Particulars: independent of Vitamin A activity or antioxidant actions.
The test system of data set [6] is UV light-suppressed immune function (DTH). The conditions noted are these: young and elderly men.
For data set [7], the system named is macular degeneration changes. The conditions noted are these: 80 mg, versus placebo.
For data set [8] the following is noted: levels as high as 800 mg.

The structures appear in SMILES notation.

For the compound `CC1=C(/C=C/C(C)=C/C=C/C(C)=C/C=C/C=C(C)/C=C/C=C(C)/C=C/C2=C(C)CCCC2(C)C)C(C)(C)CCC1` [beta-carotene], the “expression of cell surface molecules that initiate immune response” value in data set [1] is on record as “stimulated expression of cell surface molecules that initiate immune response”. Further, in data set [2], the “age related decline in natural killer cell (NK) activity” value was “Prevented age related decline in natural killer cell (NK) activity”. The “increase of epidermal retinyl esters” value was 3 fold in data set [3] and 10 fold in data set [4]. The “increase of GJC” value in data set [5] was “most potent in increasing GJC”. In addition, the “UV light-suppressed immune function (DTH)” value in data set [6] is reported as “Prevented UV light-suppressed immune function (DTH)”.
Turning to `[Zn]` [zinc], in data set [7], the “retarding macular degeneration changes” value was “significantly better than placebo”.
Consider `CC(=O)Oc1c(C)c(C)c2c(c1C)CC[C@@](C)(CCC[C@H](C)CCC[C@H](C)CCCC(C)C)O2` (racemic) [dl-alpha tocopheryl acetate], for which, in data set [8], the adverse effects result is “No adverse effects”.
